Consider seven compounds from paper PMC10388299, “Design, Synthesis, and Biological Evaluation of 2-Hydroxy-4-phenylthiophene-3-carbonitrile as PD-L1 Antagonist and Its Comparison to Available Small Molecular PD-L1 Inhibitors” (Journal of Medicinal Chemistry, 2023).

Entries after “also recorded” stand apart in the source; their conditions may differ. Structures can show the parent of a compound that is named as a salt. Where two headings read alike, the source gives them in different places.

The target of series [1] is PD-L1. The following applies: PD-L1 nanobody, ca. 15 kDa; cited from earlier work.
The test system of another series is murine PD-L1. Also on record: method as in PMID 17985865. The conditions noted are these: by means of NMR, HTRF, and cellular assays; cited from earlier work.
For series [2], the target named is T1, PD-L1 (Homo sapiens, UniProt Q9NZQ7).
T1 construct: The PD-L1 protein (18–134) was expressed in the Escherichia coli BL21 (DE3); made in house; host or cells: Escherichia coli BL21 (DE3)
T1 sequence (Q9NZQ7 18-134): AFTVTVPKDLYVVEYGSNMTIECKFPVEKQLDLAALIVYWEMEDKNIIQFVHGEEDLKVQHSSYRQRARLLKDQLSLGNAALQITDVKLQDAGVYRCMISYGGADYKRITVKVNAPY
Also on record: method as in PMID 17985865. The conditions noted are these: by means of NMR, HTRF, and cellular assays; cited from earlier work. For orientation: TR-FRET usually uses a lanthanide donor and a delayed reading to cut background.

A short description of series [3]: Experimental lipophilicity of 18F tracers. The series is classed as physicochemical. The conditions noted are these: for lipophilicity (in words) / logP: 18F tracer; for logP / logD: triplicate; for logP: read-out: experimental log P; for logD: pH 7.4, 18F tracer, read-out: experimental log D7.4.
The nature of series [4]: In vitro stability in formulation solution. The format is physicochemical. The following applies: for stability in formulation solution after 4 h: radiochemical purity by TLC, triplicate; for stability in formulation solution (4h): supplementary csv, unit not given. The protocol: (§1) In vitro stability of [^18F]4a and [^18F]9a was evaluated in Tween-80 or PBS (original diluent) and serum. After purification, samples of tracers were mixed with equal volumes of the formulated tracer and solution in which stability was evaluated (100 μL tracer solution with 100 μL Tween-80/PBS) and measured every 30 min for a 4 h period. The radiochemical purity (RCP) of labeled products was measured using thin-layer chromatography (TLC) (silica TLC plates on aluminum, MerckMilipore, USA). The TLCs were developed with appropriate MeOH/DCM eluent system; 10% MeOH/DCM + NH3 for [^18F]4a and 10% MeOH/DCM for [^18F]9a. The distribution of the radioactivity among the TLC plate was measured on GE Amersham Typhoon Scanner using phosphorus plates and ImageQuant TL 1D software for data processing (both GE Healthcare Life Science, USA). The experiment was performed in triplicate.

Series [5] concerns H358 (lung adenocarcinoma) PD-L1^+/– tumor tissue sections. The series can be described thus: Autoradiography with H358 PD-L1+/- tumor tissue sections. The series is classed as binding, human. The following applies: PD-L1+ vs counterpart H358 tumor sections. The protocol: (§2) Formalin-fixed paraffin-embedded xenograft tumors (ES2 PD-L1^+/– and H358 PD-L1^+/–) were cut into 4 μm slices and placed on the glass slides. Before each immunohistochemistry and autoradiography experiment, tissue slides were deparaffinized by oven incubation (min 1 h at 60 °C) and xylene washes, then rehydrated through graded alcohol and distilled water. Additionally, heat-induced antigen retrieval with 10 mM citrate buffer pH = 6.0 was performed (15 min 400 W). Snap-frozen human tonsil tissue was a gift from the Pathology Department (UMCG). Before each experiment, they were incubated in cold acetone for 10 min.
(§3) For autoradiography, antigen retrieval and acetone wash were followed by 30 min of incubation with a freshly formulated tracer at a concentration of 0.2 MBq/mL. After washing twice with cold PBS and once with water, slides were left to dry and exposed to phosphorus plates. The image was recorded on GE Amersham Typhoon Biomolecular Imager and analyzed with ImageQuant TL 1D software (both GE Healthcare Life Science, USA).

Series [6] can be described thus: In vitro stability in human serum. The series is classed as in vitro ADME. The conditions noted are these: for stability in serum after 4 h: radiochemical purity by TLC, triplicate; for stability in serum (4h): supplementary csv, unit not given. The protocol: as §1
The subject of series [7] is ES2 (ovarian carcinoma) PD-L1^+/– tumor tissue sections. The series can be described thus: Autoradiography with ES2 PD-L1+/- tumor tissue sections. The series is classed as binding, human. The procedure: as §2, §3
The target of series [8] is T1, PD-L1. Kind of series: Microscale thermophoresis (MST) affinity assay. The series is classed as binding. The protocol: The PD-L1 protein (18–134) was expressed in the Escherichia coli BL21 (DE3) and purified as described previously (Zak et al., 2016).[8] Protein expression was induced with 1 mM isopropyl β-D-1-thiogalactopyranosid (IPTG) at OD600 of 0.8 and the cells were cultured overnight at 37 °C. Afterward protein was refolded by drop-wise dilution into solution containing 0.1 M Tris pH 8.0, 1 M L-arginine hydrochloride, 0.25 mM oxidized glutathione, and 0.25 mM reduced glutathione. After refolding, protein was dialyzed 3 times against buffer containing 10 mM Tris pH 8.0 and 20 mM NaCl. Finally, PD-L1 was purified by SEC (size-exclusion chromatography) on HiLoad 26/600 Superdex 75 column (GE Healthcare) equilibrated with PBS pH 7.4.
PD-L1 was expressed as for NMR experiment. It was diluted to 10 μM and labelled with Protein Labeling Kit RED-NHS 2nd Generation from Nanotemper according to the manufacturer’s guidelines. The degree of labelling for PD-L1 was 0.74, which is with agreement with the protocol. Labelled PD-L1 at 100 nM concentration was then mixed with independent series of 4a and 9a compound dilution series (n = 4) and incubated for 30 min at RT. Next, samples were transferred to dedicated 384-well plate and measured on Diantus equipped with pico detector using auto-excitation and 5 s pulse (Nanotemper) for the affinity measurements. The results were exported, averaged, and fitted in Mathematica 12 using following equations: [drawing 1] where: FB—fraction bound, [A]—concentration of unlabeled titrated partner, [B]—concentration of fluorescent labeled partner that is fixed, [AB]—concentration of bound complex of A and B, Kd—equilibrium dissociation constant.
A general note: MST reads how a fluorescent partner responds to local heating, with and without ligand.

In a further series the target is T2, PD-1/PD-L1 (Homo sapiens, UniProt Q9NZQ7).
T2 construct: host or cells: CHO-K1 aAPCs (PD-L1) and Jurkat effector cells (PD-1)
T2 sequence (Q9NZQ7 19-290): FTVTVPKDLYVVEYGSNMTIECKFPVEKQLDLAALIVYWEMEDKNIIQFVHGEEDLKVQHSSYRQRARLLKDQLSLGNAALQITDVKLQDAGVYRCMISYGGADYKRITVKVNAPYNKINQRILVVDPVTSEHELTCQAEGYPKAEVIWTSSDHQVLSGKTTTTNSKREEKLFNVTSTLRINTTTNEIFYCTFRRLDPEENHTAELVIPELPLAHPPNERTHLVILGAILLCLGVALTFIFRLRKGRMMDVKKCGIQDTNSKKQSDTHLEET
Kind of series: Promega PD-1/PD-L1 immune checkpoint blockade assay (Jurkat reporter T cells + aAPCs). The series is classed as cell-based. The following applies: Jurkat reporter T cells cocultured with aAPCs; an estimation because of cytotoxicity at higher concentrations.

The target of a further series is T3, PD-1/PD-L1 complex (Homo sapiens, UniProt Q9NZQ7).
T3 construct: purchased Cisbio Bioassays
T3 sequence (Q9NZQ7 19-238 limits assumed, one chain of several): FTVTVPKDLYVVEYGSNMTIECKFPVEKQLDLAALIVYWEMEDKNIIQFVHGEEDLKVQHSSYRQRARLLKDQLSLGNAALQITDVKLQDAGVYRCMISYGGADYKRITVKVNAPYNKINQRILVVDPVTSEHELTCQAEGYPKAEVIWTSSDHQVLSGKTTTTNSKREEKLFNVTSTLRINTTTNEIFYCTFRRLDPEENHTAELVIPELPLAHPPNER
Kind of series: HTRF PD-1/PD-L1 assay (Cisbio Human PD1/PD-L1 biochemical binding assay). The conditions noted are these: disruption of the PD-1/PD-L1 complex; two independent dilution series.

In series [9] the target is T1, PD-L1. The series can be described thus: NMR binding assay (1H and 1H-15N HMQC). The following applies: molar ratio 1:1. The source says: To investigate if our synthesized analogs are capable of disrupting PD-1/PD-L1 binding, we performed our previously described nuclear magnetic resonance (NMR) assay.[16] […] The PD-L1 dimerization causes peaks of the ^1H aliphatic part PD-L1 spectrum to flatten (peak at −0.4 ppm) or disappear in the case of peaks from ^1H–^15N HMQC spectrum. Dimerization of PD-L1, in turn, prevents its binding to the PD-1.
For NMR measurements, the buffer was exchanged by gel filtration to PBS pH 7.4. 10% (v/v) of D2O was added to the samples to provide the lock signal. All spectra were recorded at 300 K using a Bruker Avance III 600 MHz spectrometer equipped with the nitrogen cryo-probe head.
Determination of binding of compounds to PD-L1 was carried out with the ^1H NMR. […] The molecular weight of each complex was estimated from relaxation time analysis, which can only be explained by the compound-induced PD-L1 dimerization. No significant changes were observed upon the addition of the PD-1 with the tested compounds.

The mark [10] stands for this setting: MST, labelled PD-L1 100 nM, n = 4, read-out: kD to hPD-L1.
The mark [11] stands for this setting: supplementary csv, unit inferred, read-out: MST Kd.

Protocol for PD-1/PD-L1 complex: Presence of inhibitors (small molecules, proteins, and so forth) that disrupt the binding decreases the resulting signal allowing the assessment of the inhibitory activity of tested inhibitors via IC50 (the half maximal inhibitory concentration).
The HTRF assay was performed using the certified Cis-Bio assay kit at 20 μL final volume using their standard protocol as described by Musielak et al.[34] Measurements were performed on individual dilution series to determine the half maximal inhibitory concentration (IC50) of tested compounds. After mixing all components according to the Cis-Bio protocol, the plate was incubated for 2 h at RT. […] For the compounds with IC50 values that were too high due to, e.g., solubility issues, a “dissociation value” at the concentration of 50 μM is presented for the sake of comparability to other inhibitors.

Regarding KN035: PD-L1 nanobody, ca. 15 kDa, at PD-L1 [1], the pKd was 8.5.

On to `C[C@@H](O)[C@H](NC(=O)N[C@@H](CC(N)=O)c1nc([C@@H](N)CO)no1)C(=O)O` [CA-170], for which the “direct binding to murine PD-L1” value in the series with murine PD-L1 is recorded as “not a direct binder”. In addition, on PD-L1 [2], the “direct binding to human PD-L1” value is reported as “not a direct binder”.

Regarding `N#Cc1c(-c2ccc([18F])cc2)csc1OCc1ccc(CN)cc1` [[^18F]4a], in series [3], the “lipophilicity (in words)” value is listed as “moderate lipophilicity”, the logP was determined as 3.6 ± 0.4 and the logD was determined as 3.9 ± 0.9. Further, the “stability in formulation solution after 4 h” value in [4] amounted to 97.5 ± 0.5%. In addition, in series [5], the “higher uptake in PD-L1+ H358 tumors” value was 40–55%. In addition, in series [6], the “stability in serum after 4 h” value is on record as 93.9 ± 0.5% and the “stability in human serum, minimal value” came out at 93%. Also, the background uptake result in series [7] (compared with [^18F]9a) was “lower background uptake than [^18F]9a”. For the same compound, the “discrimination between wild-type and knock-out ES2 slides” value in series [7] (paraffin-embedded sections) was “failed to discriminate between wild-type and knock-out; also recorded: unable to bind specifically”.

Regarding `Cc1c(COc2cc(OCc3cccc(C#N)c3)c(CN3C[C@@H](F)C[C@@H]3C(=O)O)cc2Cl)cccc1-c1ccc2c(c1)OCCO2` [9a, (2R,4S)-1-(5-Chloro-2-((3-cyanobenzyl)oxy)-4-((3-(2,3-dihydrobenzo[b][1,4]dioxin-6-yl)-2-methylbenzyl)oxy)benzyl)-4-fluoropyrrolidine-2-carboxylic Acid], the Kd on PD-L1 [8] (setting [10]) is roughly 8 nM. Also, on PD-L1 [8] (setting [11]), the Kd was found to be 8.36 nM. In addition, in series [3], the logP turned out to be 5.2 and the logD came to 6.5. Moreover, the “stability in formulation solution (4h)” value in [4] was 97.3. At PD-1/PD-L1, the EC50 is 880 nM. In addition, the “stability in serum (4h)” value in [6] is listed as 88.7. At PD-1/PD-L1 complex, this compound came in with an IC50 of 2.01 nM.

For the compound `Cc1c(COc2cc(OCc3cccc(C#N)c3)c(CN3C[C@@H]([18F])C[C@@H]3C(=O)O)cc2Cl)cccc1-c1ccc2c(c1)OCCO2` [[^18F]9a], in series [3], the “lipophilicity (in words)” value was “high lipophilicity”, the logP came to 5.2 ± 0.6 and the logD was 6.5 ± 0.2. The “stability in formulation solution after 4 h” value in [4] amounted to 97.3 ± 1.1%. The “higher uptake in PD-L1+ H358 tumors” value in series [5] was 40–55%. Besides, in series [6], the “stability in serum after 4 h” value came out at 88.7 ± 5.7% and the “stability in human serum, minimal value” was determined as 82%.

Turning to `N#Cc1c(-c2ccc(F)cc2)csc1OCc1ccc(CN)cc1` [4a, 2-((4-(Aminomethyl)benzyl)oxy)-4-(4-fluorophenyl)thiophene-3-carbonitrile Hydrochloride], on PD-L1 [9], the “effect on PD-L1 in 1H NMR and 1H-15N HMQC spectra” value is “induces dimerization of PD-L1”. Moreover, the Kd on PD-L1 [8] (setting [10]) is roughly 27 nM. The Kd on PD-L1 [8] (setting [11]) amounted to 26.9 nM. In addition, in series [3], the logP is 3.6 and the logD came out at 3.9. Also, the “stability in formulation solution (4h)” value in [4] came out at 97.5. The EC50 at PD-1/PD-L1 is 2700 nM. The “stability in serum (4h)” value in series [6] is 93.9. For the same compound, the IC50 on PD-1/PD-L1 complex was 4.97 nM.

For `Cc1c(COc2cc(OCc3cccc(C#N)c3)c(CN3CC(O)C[C@@H]3C(=O)O)cc2Cl)cccc1-c1ccc2c(c1)OCCO2` (stereo in doubt) [9b, (2R,4S)-1-(5-Chloro-2-((3-cyanobenzyl)oxy)-4-((3-(2,3-dihydrobenzo[b][1,4]dioxin-6-yl)-2-methylbenzyl)oxy)benzyl)-4-hydroxypyrrolidine-2-carboxylic Acid, reference compound], the “effect on PD-L1 in 1H NMR and 1H-15N HMQC spectra” value on PD-L1 [9] is “induces dimerization of PD-L1”.

The term pKd denotes −log10 of the Kd, conventionally taken in molar units. The Kd is a measure of binding affinity in units of concentration. As a reminder, the EC50 is the concentration giving half of the maximal effect. One may read the IC50 as the concentration at which inhibition is half-maximal. Low values mean higher potency, high ones lower potency.
